Data: publication PMC11279841, “New Members of the Centrapalus Coumarin and Pauciflorin Series from Centrapalus pauciflorus” (Pharmaceutics, 2024)
Like-named read-outs stand apart in the source and are kept apart here. One block for each compound: values may come before it.

How the values were obtained:
[1] = tested on: NIH/3T3 mouse fibroblasts; assay: MTT antiproliferative assay, non-malignant NIH/3T3 fibroblasts; assay type: cell-based; conditions: for inhibition at 10 µM / inhibition at 30 µM: Mus musculus, NIH3T3, read-out: Inhibition (%) ± SEM; for action against fibroblasts (in words): NIH/3T3, lower than against the ovarian cancer cells
Description: (§1) The antiproliferative activities of the isolated compounds were investigated on a panel of human adherent cancer cell lines using the 3-(4,5-dimethylthiazol-2-yl)-2,5-diphenyltetrazolium bromide) (MTT) assay. Cell lines isolated from cervical (HeLa and SiHa), breast (MCF-7 and MDA-MB-231), ovarian cancers (A2780), and non-malignant mouse fibroblasts (NIH/3T3) were purchased from the European Collection of Cell Cultures (Salisbury, UK). The SiHa cell line was obtained from the […] (Manassas, VA, USA). The cell culturing and determination of the antiproliferative effects of the isolated compounds were conducted using a methodology described previously. Calculations were performed using GraphPad Prism 5.01 software (GraphPad Software Inc., San Diego, CA, USA).
(§2) The antiproliferative properties of centrapalus coumarins N (2) and O (5) were investigated against a panel of human adherent tumor cell lines of gynecological origin by in vitro MTT assay (Table 4). The amounts of the other compounds were insufficient for the in vitro assay. Compounds 2 and 5 were tested on the breast (MCF-7, MDA-MB-231), cervical (HeLa, SiHa), and ovarian (A2780) cancer cells in two concentrations (10 and 30 µM). The anticancer agent cisplatin was used as a positive control. […] Non-cancerous mouse fibroblasts (NIH/3T3) were additionally included to characterize the cancer selectivity of the tested compounds. Since compounds 2 and 5 elicited weak action against fibroblasts, lower than against the ovarian cancer cells, their effect detected on A2780 cells could be regarded as selective.

[2] = tested on: MCF-7 cells; assay: MTT antiproliferative assay, MCF-7 breast cancer cells; assay type: cell-based, human; conditions: for inhibition at 10 µM / inhibition at 30 µM: Homo sapiens, read-out: Inhibition (%) ± SEM
Description: as §1, §2

[3] = tested on: MDA-MB-231 cells; assay: MTT antiproliferative assay, MDA-MB-231 breast cancer cells; assay type: cell-based, human; conditions: for inhibition at 10 µM / inhibition at 30 µM: Homo sapiens, read-out: Inhibition (%) ± SEM
Description: as §1, §2

[4] = tested on: SiHa cells; assay: MTT antiproliferative assay, SiHa cervical cancer cells; assay type: cell-based, human; conditions: for inhibition at 10 µM / inhibition at 30 µM: Homo sapiens, read-out: Inhibition (%) ± SEM
Description: as §1, §2

[5] = tested on: A2780 cells; assay: MTT antiproliferative assay, A2780 ovarian cancer cells; assay type: cell-based, human; conditions: for IC50: A2780, read-out: Calculated IC50 Value (converted); for inhibition at 10 µM / inhibition at 30 µM: read-out: Inhibition (%) ± SEM
Description: as §1, §2

[6] = tested on: HeLa cells; assay: MTT antiproliferative assay, HeLa cervical cancer cells; assay type: cell-based, human; conditions: for inhibition at 10 µM / inhibition at 30 µM: Homo sapiens, read-out: Inhibition (%) ± SEM
Description: as §1, §2

[7] = tested on: Plasmodium falciparum schizonts; design: method as in PMID 9170288; conditions: in vitro; cited from earlier work
[8] = tested on: human lymphocytes; design: method as in PMID 9170288; conditions: cited from earlier work
[9] = tested on: Leishmania major promastigotes; design: method as in PMID 9170288; conditions: in vitro; cited from earlier work
[10] = tested on: MCF-7, MDA-MB-231, HeLa, SiHa and A2780 cells; conditions: previous antiproliferative assay; cited from earlier work
[11] = tested on: MCF-7 cells; conditions: cited from earlier work
[12] = tested on: HeLa cells; conditions: cited from earlier work
[13] = tested on: Biomphalaria glabrata; conditions: cited from earlier work
[14] = tested on: Bulinus truncatus; conditions: cited from earlier work
[15] = tested on: A2780 cells; design: method as in doi:10.1016/j.arabjc.2023.104777; conditions: previous work; cited from earlier work
[16] = tested on: SiHa cells; design: method as in doi:10.1016/j.arabjc.2023.104777; conditions: previous work; cited from earlier work
[17] = tested on: A549, HCT116, SK-HEP-1, and HL-60; design: method as in PMID 29641986; conditions: four cancer cell lines; cited from earlier work
[18] = ref our previous studies, read-out: IC50 (remarkable antiproliferative activity)
[19] = read-out: Calculated IC50 Value (converted)

- IC50 ([5]; Homo sapiens): 16 µM
Compound: C=C[C@@]1(C)C[C@@H](/C=C(\C)C(=O)OC)Oc2c1c(=O)oc1cccc(C)c21 [Compound 5, (3′R),(5′S)-(E)-methyl 3-(4,10-dimethyl-5-oxo-4-vinyl-2,3,4,5-tetrahydropyrano[3,2-c]chromen-2-yl)-2-methyl acrylate]
- inhibition at 10 µM ([1]; NIH/3T3, 10 µM): < 20%
- inhibition at 30 µM ([1]; NIH/3T3, 30 µM): 28.4 ± 2.5%
- action against fibroblasts (in words) [1]: weak action
- inhibition at 10 µM ([2]; MCF7, 10 µM): < 20%
- inhibition at 30 µM ([2]; MCF7, 30 µM): 35.5 ± 1.51%
- inhibition at 10 µM ([3]; MDA-MB-231, 10 µM): < 20%
- inhibition at 30 µM ([3]; MDA-MB-231, 30 µM): 25.5 ± 1.2%
- inhibition at 10 µM ([4]; 10 µM): < 20%
- inhibition at 30 µM ([4]; 30 µM): 33.3 ± 1.32%
- inhibition at 10 µM ([5]; Homo sapiens, A2780, 10 µM): 27.4 ± 1.55%
- inhibition at 30 µM ([5]; Homo sapiens, A2780, 30 µM): 69.3 ± 1.12%
- antiproliferative activity against ovarian cancer cells (in words) [5]: considerable and selective
- inhibition at 10 µM ([6]; 10 µM): < 20%
- inhibition at 30 µM ([6]; 30 µM): 31.3 ± 1.18%

Compound: Cc1cccc2oc(=O)c3c(c12)O[C@@H](C)[C@@]3(C)CC(=O)[C@@H]1OC1(C)C [2′-epicycloisobrachycoumarinone epoxide]
- activity against Plasmodium falciparum schizonts (in words) [7]: exhibited activity
- inhibition on the proliferation of human lymphocytes (in words) [8]: weak inhibition
- activity against Leishmania major promastigotes (in words) [9]: exhibited activity

Compound: CC1=C[C@H](C[C@]2(C)c3c(c4c(C)cccc4oc3=O)O[C@@H]2C)OC1=O [Compound 8, Hoehnelia coumarin]
- antiproliferative activity (in words) [10]: ineffective

Compound: centrapalus coumarin F
- IC50 [11, 18]: < 10 µM
- IC50 [12, 18]: < 10 µM

Compound: centrapalus coumarin B
- IC50 [11, 18]: < 10 µM
- IC50 [12, 18]: < 10 µM

Compound: isoethuliacoumarin A
- molluscicidal activity (in words) [13]: molluscicidal activity
- molluscicidal activity (in words) [14]: molluscicidal activity

Compound: Cc1cccc2oc(=O)c3c(c12)O[C@H](C)[C@@]3(C)CC(=O)[C@@H]1OC1(C)C [cycloisobrachycoumarinone epoxide]
- activity against Plasmodium falciparum schizonts (in words) [7]: exhibited activity
- inhibition on the proliferation of human lymphocytes (in words) [8]: weak inhibition
- activity against Leishmania major promastigotes (in words) [9]: exhibited activity

- IC50 ([5]; Homo sapiens): 20.1 µM
Compound: C=CC1(C)CC(=O)C2C(=O)c3c(C)cccc3OC21C1(C)Cc2c(c3c(C)cccc3oc2=O)O1 (centres unmarked) [Compound 2, centrapalus coumarin N]
- inhibition at 10 µM ([1]; NIH/3T3, 10 µM): < 20%
- inhibition at 30 µM ([1]; NIH/3T3, 30 µM): 48.5 ± 2.2%
- action against fibroblasts (in words) [1]: weak action
- inhibition at 10 µM ([2]; MCF7, 10 µM): 34.6 ± 2.19%
- inhibition at 30 µM ([2]; MCF7, 30 µM): 44.2 ± 1.76%
- inhibition at 10 µM ([3]; MDA-MB-231, 10 µM): < 20%
- inhibition at 30 µM ([3]; MDA-MB-231, 30 µM): 25.4 ± 2.06%
- inhibition at 10 µM ([4]; 10 µM): < 20%
- inhibition at 30 µM ([4]; 30 µM): 30.7 ± 1.49%
- inhibition at 10 µM ([5]; Homo sapiens, A2780, 10 µM): 27.7 ± 1.34%
- inhibition at 30 µM ([5]; Homo sapiens, A2780, 30 µM): 66.2 ± 0.7%
- antiproliferative activity against ovarian cancer cells (in words) [5]: considerable and selective
- inhibition at 10 µM ([6]; 10 µM): < 20%
- inhibition at 30 µM ([6]; 30 µM): 41.8 ± 1.42%

Compound: N.N.[Cl][Pt][Cl] [Cisplatin, cisplatin, reference compound]
- Inhibition (%) ± SEM ([1]; NIH/3T3, 10 µM): 73.88 ± 1.63%
- Inhibition (%) ± SEM ([1]; NIH/3T3, 30 µM): 97.10 ± 0.15%
- IC50 ([1]; NIH/3T3, read-out: Calculated IC50 Value (converted)): 5.5 µM
- Inhibition (%) ± SEM ([2]; MCF7, 10 µM): 66.91 ± 1.81%
- Inhibition (%) ± SEM ([2]; MCF7, 30 µM): 96.80 ± 0.35%
- IC50 ([2]; MCF7, read-out: Calculated IC50 Value (converted)): 5.78 µM
- Inhibition (%) ± SEM ([3]; MDA-MB-231, 10 µM): 42.72 ± 2.68%
- Inhibition (%) ± SEM ([3]; MDA-MB-231, 30 µM): 86.44 ± 0.42%
- IC50 ([3]; MDA-MB-231, read-out: Calculated IC50 Value (converted)): 10.2 µM
- Inhibition (%) ± SEM ([4]; 10 µM): 60.98 ± 0.92%
- Inhibition (%) ± SEM ([4]; 30 µM): 88.95 ± 0.53%
- IC50 [4, 19]: 4.29 µM
- Inhibition (%) ± SEM ([5]; A2780, 10 µM): 83.57 ± 2.21%
- Inhibition (%) ± SEM ([5]; A2780, 30 µM): 95.02 ± 0.28%
- IC50 [5]: 1.3 µM
- Inhibition (%) ± SEM ([6]; 10 µM): 42.61 ± 2.33%
- Inhibition (%) ± SEM ([6]; 30 µM): 99.93 ± 0.26%
- IC50 [6, 19]: 12.4 µM

Compound: C=C[C@@]1(C)C[C@@]2(C=C(C)C(=O)O2)Oc2c1c(=O)oc1cccc(C)c21 [Compound 6]
- IC50 [15]: 29.9 µM
- IC50 ([11]; previous work, read-out: IC50): 15.3 µM
- IC50 [16]: 18.9 µM
- IC50 ([12]; previous work, read-out: IC50): 14.6 µM

Compound: pauciflorin F
- IC50 [11, 18]: < 10 µM
- IC50 [12, 18]: < 10 µM

Compound: C/C(=C\CC[C@@]1(C)C=Cc2c(O)cc(C)cc2O1)CC(=O)CC(C)C [anthopogochromene B]
- cytotoxic activity (in words) [17]: moderate cytotoxic activity

Compound: Ethuliacoumarin A
- molluscicidal activity (in words) [13]: molluscicidal activity
- molluscicidal activity (in words) [14]: molluscicidal activity

Compound: C=C[C@]1(C)C[C@@H](C=C(C)C)Oc2c1c(=O)oc1cccc(C)c21 [Compound 7, Centrapalus coumarin A]
- IC50 [15]: 19.7 µM
- IC50 [11, 18]: < 10 µM
- IC50 ([12]; previous work, read-out: IC50): 9.21 µM
- IC50 [12, 18]: < 10 µM
